Assay results published in PubChem BioAssay AID1259411 (Chemical Carcinogenesis Research Information System (CCRIS), 2018).
The source made the active and inactive calls. How the calls were made is not given here.

Tested on: rodent carcinogenicity bioassays, tumor incidence
Test: CCRIS carcinogenicity studies
How it was run: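 Archive of carcinogenicity, mutagenicity, tumor promotion and tumor inhibition results drawn from journals, NCI reports and other sources, expert-reviewed; covers 1985-2011 and is no longer updated.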

C1COCCO1
carcinogen call (Species: MOUSE, Strain/Sex: B6C3F1/FEMALE, Route: ORAL, Dose: 0, 0.5, 1.0% (V/V) IN DRINKING WATER, Dose: 0, 0.5, 1.0% (V/V) IN DRINKING WATER, Tumor Site: Type of Lesion: LIVER: HEPATOCELLULAR CARCINOMA OR ADENOMA): active; positive | carcinogen call (Species: MOUSE, Strain/Sex: B6C3F1/MALE, Route: ORAL, Dose: 0, 0.5, 1.0% (V/V) IN DRINKING WATER, Dose: 0, 0.5, 1.0% (V/V) IN DRINKING WATER, Tumor Site: Type of Lesion: LIVER: HEPATOCELLULAR CARCINOMA OR ADENOMA): active; positive | carcinogen call (Species: MOUSE, Strain/Sex: BDF1/FEMALE, Route: ORAL, Dose: 0, 500, 2000, 8000 PPM IN DRINKING WATER FOR 104 WK (STUDY DURATION: 105 WK), Dose: 0, 500, 2000, 8000 PPM IN DRINKING WATER FOR 104 WK (STUDY DURATION: 105 WK), Tumor Site: Type of Lesion: LIVER: HEPATOCELLULAR ADENOMA, HEPATOCELLULAR CARCINOMA): active; positive | carcinogen call (Species: MOUSE, Strain/Sex: BDF1/MALE, Route: ORAL, Dose: 0, 500, 2000, 8000 PPM IN DRINKING WATER FOR 104 WK (STUDY DURATION: 105 WK), Dose: 0, 500, 2000, 8000 PPM IN DRINKING WATER FOR 104 WK (STUDY DURATION: 105 WK), Tumor Site: Type of Lesion: LIVER: HEPATOCELLULAR ADENOMA, HEPATOCELLULAR CARCINOMA): active; positive | carcinogen call (Species: RAT, Strain/Sex: F344/FEMALE, Route: ORAL, Dose: 0, 200, 1000, 5000 PPM IN DRINKING WATER FOR 104 WK (STUDY DURATION: 105 WK), Dose: 0, 200, 1000, 5000 PPM IN DRINKING WATER FOR 104 WK (STUDY DURATION: 105 WK), Tumor Site: Type of Lesion: NASAL CAVITY: TUMOR, LIVER: HEPATOCELLULAR ADENOMA, HEPATOCELLULAR CARCINOMA, MAMMARY GLAND: TUMOR, Tumor Site: Type of Lesion: NASAL CAVITY: TUMOR, LIVER: HEPATOCELLULAR ADENOMA, HEPATOCELLULAR CARCINOMA, MAMMARY GLAND: TUMOR): active; positive | carcinogen call (Species: RAT, Strain/Sex: F344/MALE, Route: ORAL, Dose: 0, 200, 1000, 5000 PPM IN DRINKING WATER FOR 104 WK (STUDY DURATION: 105 WK), Dose: 0, 200, 1000, 5000 PPM IN DRINKING WATER FOR 104 WK (STUDY DURATION: 105 WK), Tumor Site: Type of Lesion: NASAL CAVITY: TUMOR, LIVER: HEPATOCELLULAR ADENOMA, HEPATOCELLULAR CARCINOMA, PERITONEUM: MESOTHELIOMA, SUBCUTIS: FIBROM, Tumor Site: Type of Lesion: NASAL CAVITY: TUMOR, LIVER: HEPATOCELLULAR ADENOMA, HEPATOCELLULAR CARCINOMA, PERITONEUM: MESOTHELIOMA, SUBCUTIS: FIBROM): active; positive | carcinogen call (Species: RAT, Strain/Sex: OSBORNE-MENDEL/FEMALE, Route: ORAL, Dose: 0, 0.5, 1.0% (V/V) IN DRINKING WATER, Dose: 0, 0.5, 1.0% (V/V) IN DRINKING WATER, Tumor Site: Type of Lesion: NASAL TURBINATES: SQUAMOUS CELL CARCINOMA, LIVER: HEPATOCELLULAR ADENOMA): active; positive | carcinogen call (Species: RAT, Strain/Sex: OSBORNE-MENDEL/MALE, Route: ORAL, Dose: 0, 0.5, 1.0% (V/V) IN DRINKING WATER, Dose: 0, 0.5, 1.0% (V/V) IN DRINKING WATER, Tumor Site: Type of Lesion: NASAL TURBINATES: SQUAMOUS CELL CARCINOMA): active; positive | carcinogen call (Species: RAT, Strain/Sex: SHERMAN/MALE,FEMALE, Route: ORAL, Dose: 0.01, 0.1, 1.0% IN DRINKING WATER FOR UP TO 716 D, Dose: 0.01, 0.1, 1.0% IN DRINKING WATER FOR UP TO 716 D, Tumor Site: Type of Lesion: LIVER: HEPATOCELLULAR CARCINOMA, CHOLANGIOMA): active; positive | carcinogen call (Species: RAT, Strain/Sex: SPRAGUE-DAWLEY/MALE, Route: ORAL, Dose: 0.75, 1.0, 1.4, 1.8% IN DRINKING WATER FOR 13 MO, Dose: 0.75, 1.0, 1.4, 1.8% IN DRINKING WATER FOR 13 MO, Tumor Site: Type of Lesion: NASAL CAVITY: SQUAMOUS CELL CARCINOMA, ADENOCARCINOMA, LIVER: HEPATOMA, HEPATOCELLULAR CARCINOMA): active; positive | carcinogen call (Species: RAT, Strain/Sex: WISTAR/MALE, Route: ORAL, Dose: 1% IN DRINKING WATER FOR 63 WK, Tumor Site: Type of Lesion: LIVER: NEOPLASTIC NODULE, HEPATOCELLULAR CARCINOMA): active; positive

O[C@H]1[C@H]2O[C@H]2c2c(ccc3cc4ccc5ccccc5c4nc23)[C@@H]1O
carcinogen call (Species: MOUSE, Strain/Sex: CD-1/FEMALE, Route: INTRAPERITONEAL, Dose: 0, 28 NMOL (TOTAL DOSE) ADMINISTERED AS 1/7 OF DOSE WITHIN 24 HR AFTER BIRTH, 2/7 OF DOSE AT 8 D OLD, 4/7 OF DOSE AT 15): inactive; negative | carcinogen call (Species: MOUSE, Strain/Sex: CD-1/FEMALE, Route: INTRAPERITONEAL, Dose: 0, 175 NMOL (TOTAL DOSE) ADMINISTERED AS 1/7 OF DOSE WITHIN 24 HR AFTER BIRTH, 2/7 OF DOSE AT 8 D OLD, 4/7 OF DOSE AT 15): inactive; negative | carcinogen call (Species: MOUSE, Strain/Sex: CD-1/MALE, Route: INTRAPERITONEAL, Dose: 0, 28 NMOL (TOTAL DOSE) ADMINISTERED AS 1/7 OF DOSE WITHIN 24 HR AFTER BIRTH, 2/7 OF DOSE AT 8 D OLD, 4/7 OF DOSE AT 15): inactive; negative | carcinogen call (Species: MOUSE, Strain/Sex: CD-1/MALE, Route: INTRAPERITONEAL, Dose: 0, 175 NMOL (TOTAL DOSE) ADMINISTERED AS 1/7 OF DOSE WITHIN 24 HR AFTER BIRTH, 2/7 OF DOSE AT 8 D OLD, 4/7 OF DOSE AT 15): inactive; negative

O=[N+]([O-])c1cc2cccc3ccc4cccc1c4c32
carcinogen call (Species: RAT, Strain/Sex: STRAIN-CD/FEMALE, Route: INJECTION, Dose: 0, 0.1 ML IN 20.3 UMOL/ML DMSO INJECTED INTO MAMMARY TISSUE OF THE 3 LEFT THORACIC NIPPLES FOLLOWED THE NEXT D BY SIMILA, Tumor Site: Type of Lesion: MAMMARY GLAND: FIBROADENOMA, ADENOCARCINOMA): active; positive | carcinogen call (Species: RAT, Strain/Sex: STRAIN-CD/FEMALE, Route: INJECTION, Dose: 0, 0.1 ML OF A 20.3 UMOL/ML SOLUTION IN DMSO INJECTED INTO MAMMARY TISSUE UNDERLYING 3 LEFT THORACIC NIPPLES THE FOLLOWI, Tumor Site: Type of Lesion: MAMMARY GLAND: FIBROADENOMA): active; positive | carcinogen call (Species: RAT, Strain/Sex: STRAIN-CD/FEMALE, Route: INTRAPERITONEAL, Dose: 0, 67 UMOL/KG BW IN DMSO 3/WK FOR 4 WK (STUDY DURATION: 61 WK), Tumor Site: Type of Lesion: MAMMARY GLAND: ADENOCARCINOMA): active; positive | carcinogen call (Species: RAT, Strain/Sex: STRAIN-CD/FEMALE, Route: INTRAPERITONEAL, Dose: 0, 67 UMOL/KG/BW IN 25 UMOL/ML DMSO 3/WK FOR 4 WK (TOTAL DOSE: 0; 119 UMOL) ADMINISTERED TO WEANLING RATS (STUDY DURATIO, Dose: 0, 67 UMOL/KG/BW IN 25 UMOL/ML DMSO 3/WK FOR 4 WK (TOTAL DOSE: 0; 119 UMOL) ADMINISTERED TO WEANLING RATS (STUDY DURATIO, Tumor Site: Type of Lesion: MAMMARY GLAND: ADENOCARCINOMA): active; positive | carcinogen call (Species: RAT, Strain/Sex: STRAIN-CD/FEMALE, Route: SUBCUTANEOUS, Dose: 0, 75 UMOL (TOTAL DOSE) ADMINISTERED OVER 8 WK BEGINNING WITHIN 24 HR OF BIRTH (STUDY DURATION: 86 WK), Tumor Site: Type of Lesion: MAMMARY GLAND: TUMOR, INTEGUMENTARY SYSTEM: MALIGNANT FIBROUS HISTIOCYTOMA, HEMATOPOIETIC SYSTEM: LEUKEMIA, ZYMBAL GLAND, Tumor Site: Type of Lesion: MAMMARY GLAND: TUMOR, INTEGUMENTARY SYSTEM: MALIGNANT FIBROUS HISTIOCYTOMA, HEMATOPOIETIC SYSTEM: LEUKEMIA, ZYMBAL GLAND): active; positive

O=C([O-])C(=O)[O-].O=C([O-])C(=O)[O-].[K+].[K+].[O]=[Ti+2]
carcinogen call (Species: MOUSE, Strain/Sex: SWISS/FEMALE, Route: ORAL, Dose: 0, 5 PPM IN DRINKING WATER FOR DURATION OF STUDY (STUDY DURATION: LIFE SPAN)): inactive; negative | carcinogen call (Species: MOUSE, Strain/Sex: SWISS/MALE, Route: ORAL, Dose: 0, 5 PPM IN DRINKING WATER FOR DURATION OF STUDY (STUDY DURATION: LIFE SPAN)): inactive; negative

[2H]c1c([2H])c([2H])c2c(C([2H])([2H])[2H])c3c(c([2H])c([2H])c4c([2H])c([2H])c([2H])c([2H])c43)c(C([2H])([2H])[2H])c2c1[2H]
carcinogen call (Species: MOUSE, Strain/Sex: SWISS/FEMALE, Route: SUBCUTANEOUS, Dose: IN OLIVE OIL 1/MO FOR 3 MO FOR A TOTAL DOSE OF 0, 1.5 MG (STUDY DURATION: 395 D), Tumor Site: Type of Lesion: INJECTION SITE: FIBROBLASTIC SARCOMA): active; positive | carcinogen call (Species: MOUSE, Strain/Sex: SWISS/MALE, Route: SUBCUTANEOUS, Dose: IN OLIVE OIL 1/MO FOR 3 MO FOR A TOTAL DOSE OF 0, 1.5 MG (STUDY DURATION: 395 D), Tumor Site: Type of Lesion: INJECTION SITE: FIBROBLASTIC SARCOMA): active; positive
